Measurements reported in ChEMBL document CHEMBL4673406, “Discovery and Preclinical Evaluation of BMS-986242, a Potent, Selective Inhibitor of Indoleamine-2,3-dioxygenase 1” (ACS Med Chem Lett, 2021).

Key:
[1] = biological target: Acetylcholine receptor subunit alpha (Homo sapiens, UniProt P02708); test: Inhibition of alpha1 nAChR (unknown origin)
[2] = Half life in dog at 1 mg/kg, iv; type: ADME, organism-based, Canis lupus familiaris; details: in vivo
[3] = biological target: Indoleamine 2,3-dioxygenase 1 (Mus musculus) (UniProt P28776); test: In vivo inhibition of IDO1 in nu/nu mouse xenografted with human SK-OV-3 cells assessed as reduction in kynurenine level at 30 mg/kg, po qd by HPLC-MS/MS analysis relative to control; type: functional, organism-based
Chain of Indoleamine 2,3-dioxygenase 1 (Mus musculus) (P28776 whole entry, looked up): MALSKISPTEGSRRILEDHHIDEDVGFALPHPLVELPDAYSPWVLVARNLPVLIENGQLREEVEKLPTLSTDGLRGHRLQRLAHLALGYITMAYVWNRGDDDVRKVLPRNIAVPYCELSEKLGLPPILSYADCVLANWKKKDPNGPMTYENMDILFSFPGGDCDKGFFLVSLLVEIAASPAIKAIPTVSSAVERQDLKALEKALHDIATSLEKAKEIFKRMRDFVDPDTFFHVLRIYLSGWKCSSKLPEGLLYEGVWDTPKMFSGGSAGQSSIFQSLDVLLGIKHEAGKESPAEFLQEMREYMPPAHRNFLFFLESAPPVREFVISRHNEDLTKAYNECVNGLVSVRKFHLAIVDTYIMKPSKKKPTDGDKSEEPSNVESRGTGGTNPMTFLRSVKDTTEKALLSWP

[4] = biological target: Indoleamine 2,3-dioxygenase 1 (Mus musculus) (UniProt P28776); test: In vivo inhibition of IDO1 in nu/nu mouse xenografted with human SK-OV-3 cells assessed as reduction in kynurenine level at 10 mg/kg, po qd by HPLC-MS/MS analysis relative to control; type: functional, organism-based
[5] = biological target: Indoleamine 2,3-dioxygenase 1 (Mus musculus) (UniProt P28776); test: In vivo inhibition of IDO1 in nu/nu mouse xenografted with human SK-OV-3 cells assessed as reduction in kynurenine level at 3 mg/kg, po qd by HPLC-MS/MS analysis relative to control; type: functional, organism-based
[6] = AUC (0 to 24 hrs) in nu/nu mouse xenografted with human SK-OV-3 cells measured in tumor at 30 mg/kg, po qd by uHPLC-MS/MS analysis; type: ADME, organism-based; design: time < 24 hr, route oral, dose 30 mg/kg
[7] = AUC (0 to 24 hrs) in nu/nu mouse xenografted with human SK-OV-3 cells measured in tumor at 10 mg/kg, po qd by uHPLC-MS/MS analysis; type: ADME, organism-based; design: time < 24 hr, route oral, dose 10 mg/kg
[8] = Toxicity in rat assessed as effect on cardiovascular system by telemetry; details: in vivo
[9] = AUC (0 to 24 hrs) in nu/nu mouse xenografted with human SK-OV-3 cells measured in tumor at 3 mg/kg, po qd by uHPLC-MS/MS analysis; type: ADME, organism-based; design: time < 24 hr, route oral, dose 3 mg/kg
[10] = Oral bioavailability in cynomolgus monkey at 5 mg/kg; type: ADME, organism-based, Macaca fascicularis; details: in vivo
[11] = AUC in cynomolgus monkey at 5 mg/kg, po; type: ADME, organism-based, Macaca fascicularis; design: dose 5 mg/kg; details: in vivo
[12] = AUC in cynomolgus monkey at 1 mg/kg, iv; type: ADME, organism-based, Macaca fascicularis; design: dose 1 mg/kg; details: in vivo
[13] = Oral bioavailability in dog at 5 mg/kg; type: ADME, organism-based, Canis lupus familiaris; details: in vivo
[14] = AUC in dog at 5 mg/kg, po; type: ADME, organism-based, Canis lupus familiaris; design: dose 5 mg/kg; details: in vivo
[15] = Volume of distribution at steady state in dog at 1 mg/kg, iv; type: ADME, organism-based, Canis lupus familiaris; details: in vivo
[16] = Volume of distribution at steady state in rat at 0.5 mg/kg, iv; type: ADME, organism-based; details: in vivo
[17] = AUC in mouse at 6 mg/kg, po; type: ADME, organism-based; design: dose 6 mg/kg; details: in vivo
[18] = Oral bioavailability in mouse at 6 mg/kg; type: ADME, organism-based; details: in vivo
[19] = Volume of distribution at steady state in mouse at 0.5 mg/kg, iv; type: ADME, organism-based; details: in vivo
alpha7 nAChR = alpha7 nAChR (Homo sapiens, UniProt P36544); test: Inhibition of alpha7 nAChR (unknown origin) relative to control; details: read-out: Imax
Chain of alpha7 nAChR (P36544 whole entry): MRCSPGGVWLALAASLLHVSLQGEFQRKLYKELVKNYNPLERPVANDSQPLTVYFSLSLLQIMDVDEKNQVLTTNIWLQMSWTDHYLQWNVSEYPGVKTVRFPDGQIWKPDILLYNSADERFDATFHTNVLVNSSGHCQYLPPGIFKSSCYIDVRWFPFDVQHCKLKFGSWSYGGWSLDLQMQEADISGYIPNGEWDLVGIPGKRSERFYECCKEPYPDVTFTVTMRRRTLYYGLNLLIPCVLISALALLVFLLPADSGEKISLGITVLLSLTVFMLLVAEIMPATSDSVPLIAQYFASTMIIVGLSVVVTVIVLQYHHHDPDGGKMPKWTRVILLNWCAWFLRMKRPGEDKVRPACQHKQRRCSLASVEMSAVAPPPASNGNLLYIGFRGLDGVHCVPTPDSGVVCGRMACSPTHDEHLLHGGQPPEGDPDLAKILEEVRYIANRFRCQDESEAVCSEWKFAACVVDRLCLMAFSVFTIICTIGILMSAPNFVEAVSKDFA

[20] = biological target: T1, Nuclear receptor subfamily 1 group I member 2 (Homo sapiens, UniProt O75469); test: Transactivation of PXR (unknown origin); type: ADME
T1 sequence (O75469 whole entry): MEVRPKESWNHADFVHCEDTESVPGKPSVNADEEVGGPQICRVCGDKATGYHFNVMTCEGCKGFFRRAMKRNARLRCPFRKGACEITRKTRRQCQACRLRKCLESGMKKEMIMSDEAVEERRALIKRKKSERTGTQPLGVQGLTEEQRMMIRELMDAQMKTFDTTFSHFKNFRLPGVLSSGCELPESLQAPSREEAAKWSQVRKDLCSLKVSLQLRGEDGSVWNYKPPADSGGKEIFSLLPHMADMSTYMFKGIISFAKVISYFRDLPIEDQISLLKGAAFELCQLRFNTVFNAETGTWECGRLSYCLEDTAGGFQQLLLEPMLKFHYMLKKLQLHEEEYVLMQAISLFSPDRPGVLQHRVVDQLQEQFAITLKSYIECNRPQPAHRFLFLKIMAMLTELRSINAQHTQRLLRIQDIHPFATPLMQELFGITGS

[21] = Inhibition of calcium channel (unknown origin) by patch clamp method; design: species or system Homo sapiens
[22] = Protein binding in human plasma assessed as free fraction; type: ADME, cell-free
Homo sapiens = species on record: Homo sapiens; test: Inhibition of sodium channel (unknown origin) at 10 uM and 1 to 4 Hz by patch clamp method relative to control
hERG = hERG (Homo sapiens, UniProt Q12809); test: Inhibition of human ERG at 10 uM by patch clamp method relative to control
Chain of hERG (Q12809 whole entry): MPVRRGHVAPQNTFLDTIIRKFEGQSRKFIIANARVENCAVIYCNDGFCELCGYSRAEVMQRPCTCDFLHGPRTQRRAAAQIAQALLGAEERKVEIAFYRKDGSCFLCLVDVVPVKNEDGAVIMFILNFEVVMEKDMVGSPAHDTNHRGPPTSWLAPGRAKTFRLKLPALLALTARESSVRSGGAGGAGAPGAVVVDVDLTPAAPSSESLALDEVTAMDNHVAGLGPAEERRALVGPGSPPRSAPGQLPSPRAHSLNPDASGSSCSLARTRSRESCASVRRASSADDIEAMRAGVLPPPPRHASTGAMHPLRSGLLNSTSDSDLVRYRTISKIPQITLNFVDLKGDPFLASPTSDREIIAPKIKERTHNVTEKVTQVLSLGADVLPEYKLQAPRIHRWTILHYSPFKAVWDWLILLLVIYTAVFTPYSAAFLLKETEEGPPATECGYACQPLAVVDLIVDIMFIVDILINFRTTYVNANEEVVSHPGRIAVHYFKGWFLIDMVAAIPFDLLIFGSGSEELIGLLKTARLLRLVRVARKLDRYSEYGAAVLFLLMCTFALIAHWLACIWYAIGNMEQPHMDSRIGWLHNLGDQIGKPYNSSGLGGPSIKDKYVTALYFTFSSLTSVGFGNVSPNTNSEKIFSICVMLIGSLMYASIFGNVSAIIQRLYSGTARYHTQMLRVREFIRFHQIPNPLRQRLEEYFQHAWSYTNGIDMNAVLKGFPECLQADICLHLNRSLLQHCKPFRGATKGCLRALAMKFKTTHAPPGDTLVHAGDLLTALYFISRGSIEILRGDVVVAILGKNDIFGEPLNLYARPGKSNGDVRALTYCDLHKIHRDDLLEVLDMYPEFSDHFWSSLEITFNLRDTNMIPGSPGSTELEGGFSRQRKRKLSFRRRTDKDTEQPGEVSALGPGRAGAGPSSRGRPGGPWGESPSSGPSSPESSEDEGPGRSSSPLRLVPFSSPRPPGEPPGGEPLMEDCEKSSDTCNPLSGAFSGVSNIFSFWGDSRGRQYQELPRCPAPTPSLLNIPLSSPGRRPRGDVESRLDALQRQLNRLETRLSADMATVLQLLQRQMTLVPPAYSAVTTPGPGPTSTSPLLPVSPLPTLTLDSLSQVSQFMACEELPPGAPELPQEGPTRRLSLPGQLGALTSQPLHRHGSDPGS

Cytochrome P450 2C19 = Cytochrome P450 2C19 (Homo sapiens, UniProt P33261); test: Inhibition of human CYP2C19; type: ADME
Chain of Cytochrome P450 2C19 (P33261 whole entry): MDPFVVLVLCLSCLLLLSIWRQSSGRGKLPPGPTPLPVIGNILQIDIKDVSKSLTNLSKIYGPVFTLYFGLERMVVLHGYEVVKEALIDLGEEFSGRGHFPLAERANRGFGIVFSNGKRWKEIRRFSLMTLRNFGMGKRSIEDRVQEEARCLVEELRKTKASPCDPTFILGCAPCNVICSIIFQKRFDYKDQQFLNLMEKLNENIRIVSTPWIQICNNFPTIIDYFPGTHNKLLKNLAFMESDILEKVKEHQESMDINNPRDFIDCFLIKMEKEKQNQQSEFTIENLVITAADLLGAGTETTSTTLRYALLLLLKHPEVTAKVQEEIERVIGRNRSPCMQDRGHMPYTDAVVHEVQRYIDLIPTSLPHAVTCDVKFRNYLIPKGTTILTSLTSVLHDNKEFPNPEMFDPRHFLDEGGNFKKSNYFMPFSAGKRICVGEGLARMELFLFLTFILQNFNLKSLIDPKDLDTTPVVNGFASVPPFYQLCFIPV

[23] = Permeability across basal to apical side in human Caco-2 cells; type: ADME, cell-based; details: read-out: permeability
[24] = Permeability across apical to basal side in human Caco-2 cells; type: ADME, cell-based; details: read-out: permeability
[25] = Metabolic stability in cynomolgus monkey hepatocytes assessed as UGT-mediated compound glucuronidation by measuring half life; type: ADME, cell-based, Macaca fascicularis, Hepatocyte
[26] = Metabolic stability in dog hepatocytes assessed as UGT-mediated compound glucuronidation by measuring half life; type: ADME, cell-based, Canis lupus familiaris, Hepatocyte
[27] = Metabolic stability in rat hepatocytes assessed as UGT-mediated compound glucuronidation by measuring half life; type: ADME, cell-based, Hepatocyte
[28] = biological target: UDP-glucuronosyltransferases (UGTs) (Homo sapiens, UniProt O60656+O75310+O75795+P06133+P0DTE4+P0DTE5+P16662+P19224+P22309+P22310+P35503+P35504+P36537+P54855+Q6UWM9+Q9BY64+Q9HAW7+Q9HAW8+Q9HAW9); test: Metabolic stability in human hepatocytes assessed as UGT-mediated compound glucuronidation by measuring half life; type: ADME, cell-based, Hepatocyte
[29] = Metabolic stability in rat hepatocytes assessed as CYP450-mediated compound metabolism by measuring half life; type: ADME, cell-based, Hepatocyte
Cytochrome P450 = Cytochrome P450 (Homo sapiens, UniProt P04798+P05177+P05181+P08684+P10632+P10635+P11509+P11712+P13584+P20813+P20815+P20853+P24462+P24903+P33260+P33261+P51589+P78329+P98187+Q02928+Q08477+Q16678+Q16696+Q5TCH4+Q6VVX0+Q7Z449+Q8TAV3+Q96SQ9+Q9HB55); test: Metabolic stability in human hepatocytes assessed as CYP450-mediated compound metabolism by measuring half life; type: ADME, cell-based, Hepatocyte
[30] = biological target: Indoleamine 2,3-dioxygenase 1 (Homo sapiens, UniProt P14902); test: Inhibition of IDO1 in IFNgamma/LPS-stimulated human whole blood preincubated for 4 hrs followed by IFNgamma/LPS stimulation and incubated for 18 hrs by Rapid-fire mass spectrometry analysis; type: tissue-based
Chain of Indoleamine 2,3-dioxygenase 1 (Homo sapiens, UniProt P14902) (P14902 whole entry): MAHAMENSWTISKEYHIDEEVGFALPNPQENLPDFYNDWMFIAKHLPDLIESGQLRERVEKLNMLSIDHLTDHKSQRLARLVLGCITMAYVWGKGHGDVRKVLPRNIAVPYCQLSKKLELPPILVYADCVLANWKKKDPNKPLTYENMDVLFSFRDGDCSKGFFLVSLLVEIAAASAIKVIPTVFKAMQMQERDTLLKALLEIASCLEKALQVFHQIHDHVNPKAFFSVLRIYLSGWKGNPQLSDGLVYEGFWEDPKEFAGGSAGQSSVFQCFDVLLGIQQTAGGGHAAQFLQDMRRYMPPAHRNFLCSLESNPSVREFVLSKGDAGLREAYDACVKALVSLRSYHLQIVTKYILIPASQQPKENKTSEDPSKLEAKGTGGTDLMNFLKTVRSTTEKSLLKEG

[31] = biological target: Indoleamine 2,3-dioxygenase 1 (Mus musculus, UniProt P28776); test: Inhibition of IDO1 in IFNgamma-stimulated mouse M109 cells preincubated for 2 hrs followed by IFNgamma stimulation and measured after 18 hrs by; type: cell-based
Chain of Indoleamine 2,3-dioxygenase 1 (Mus musculus, UniProt P28776) (P28776 whole entry): as the sequence (P28776 whole entry, looked up) above

[32] = Half life in mouse at 0.5 mg/kg, iv; type: ADME, organism-based; details: in vivo
[33] = Half life in rat at 0.5 mg/kg, iv; type: ADME, organism-based; details: in vivo
in vitro [34] = details: mouse, liver microsomes
Description: Metabolic stability in mouse liver microsomes assessed as parent compound remaining at 0.5 uM measured after 10 mins

in vitro [35] = details: human, liver microsomes
Description: Metabolic stability in human liver microsomes assessed as parent compound remaining at 0.5 uM measured after 10 mins

Chain of Acetylcholine receptor subunit alpha (P02708 whole entry): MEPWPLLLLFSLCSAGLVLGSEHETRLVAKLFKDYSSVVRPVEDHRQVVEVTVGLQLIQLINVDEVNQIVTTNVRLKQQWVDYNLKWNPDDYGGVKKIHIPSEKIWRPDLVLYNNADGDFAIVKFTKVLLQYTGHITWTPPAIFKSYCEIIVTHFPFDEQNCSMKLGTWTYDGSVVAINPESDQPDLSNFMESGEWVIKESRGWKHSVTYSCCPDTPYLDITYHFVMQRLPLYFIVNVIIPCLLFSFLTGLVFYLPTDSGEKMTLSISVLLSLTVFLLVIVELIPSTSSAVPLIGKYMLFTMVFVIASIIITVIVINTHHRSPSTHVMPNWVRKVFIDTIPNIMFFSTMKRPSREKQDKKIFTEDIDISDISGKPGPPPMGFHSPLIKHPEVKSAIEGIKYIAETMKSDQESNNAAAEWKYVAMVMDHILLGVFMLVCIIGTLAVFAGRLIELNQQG

What does the source list for C[C@@H](NC(=O)c1ccc(Cl)cc1)[C@H]1CC[C@@H](c2ccnc3ccc(F)cc32)CC1?
IC50 [1]: 12.3 µM; t1/2 [2]: 19 min; inhibition [3]: 59%; inhibition [4]: 58%; inhibition [5]: 45%; AUC at 24 h [6]: 61 µM·h; AUC at 24 h [7]: 21.1 µM·h; Activity [8]: Non-Toxic; AUC at 24 h [9]: 9.6 µM·h; bioavailability [10]: 42%; AUC [11]: 7.1 µM·h; AUC [12]: 3.4 µM·h; bioavailability [13]: 39%; AUC [14]: 17.4 µM·h; Vdss [15]: 3.87 L/kg; Vdss [16]: 0.97 L/kg; AUC [17]: 12.6 µM·h; F [18]: 152%; Vdss [19]: 17 L/kg; Emax (alpha7 nAChR): 20%; EC50 [20]: > 50 µM; IC50 [21]: > 25 µM; Fu [22]: < 0.3%; inhibition (Homo sapiens): < 20%; inhibition at 10 µM (hERG): 87%; IC50 (Cytochrome P450 2C19): 3.37 µM; Papp B→A [23]: 5.5 ×10⁻⁶ cm/s; Papp A→B [24]: 8.8 ×10⁻⁶ cm/s; half-life [25]: > 120 min; half-life [26]: 33 min; half-life [27]: 93 min; half-life [28]: 120 min; half-life [29]: 10 min; half-life (Cytochrome P450): 14 min; IC50 [30]: 0.025 µM; IC50 [31]: 0.002 µM; t1/2 [32]: 8 min; t1/2 [33]: 4 min; remaining at 10 min, 0.5 µM (in vitro [34]): 21%; remaining at 10 min, 0.5 µM (in vitro [35]): 54%
